What all share (test): inhibition of tumour cell growth, NCI panel, 48 h
The test system of assay [1] is NCI-H460 lung.
Assay [2] deals with MDA-MB-435.
The test system of assay [3] is OVCAR-4 ovarian.
Assay [4] relates to NCI/ADR-RES ovarian.
The subject of assay [5] is SNB-75 CNS.
Assay [6] has as its system HCT-116 colon.
Assay [7] deals with HCT-15 colon.
For assay [8], the system named is OVCAR-3 ovarian.
Assay [9] relates to A549 NSCLC.
Assay [10] concerns HL-60(TB) leukemia.

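Following 48 hours of exposure in 96-well plates, responses at five concentrations were used to interpolate endpoints linearly. GI50 is the concentration that inhibits growth by half. Definition used: TGI = concentration required for complete inhibition of growth.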

On to `CC1C(=O)N=C2C(=CN(Cc3ccccc3)c3ccccc32)C(=O)N1C` (configuration not stated), for which the TGI in assay [1], in [2], in [3], in [4], in [5] and in assay [6] was more than 100 µM throughout. In addition, the TGI in assay [7], in assay [8] and in assay [9] was more than 100 µM each time.
As to `COc1ccc(Cl)cc1N1C(=O)C(Cl)=C(Nc2cccc(O)c2)C1=O`, the GI50 was 17.9 µM in assay [1]; 24.6 µM in assay [2]; 16.7 µM in assay [3]; 27.2 µM in assay [4]; 11.8 µM in assay [6]; 14.4 µM in assay [7]. The GI50 in assay [8] is 11.5 µM; in assay [9], 20.1 µM. Besides, the TGI in assay [1] is 48.6 µM; in [2], 62.8 µM; in assay [3] it was 40 µM; in assay [4] it was 95.4 µM; in [6], 24.9 µM; in [7], 29.1 µM. Also, the TGI in [8] was found to be 36.5 µM; in assay [9], 59.2 µM.
Turning to `Cc1cccc(C(C)(C)C)c1NC(=O)CC1C(=O)Nc2ccccc2S1=O` (configuration not stated), the TGI in assay [1] was more than 100 µM; in assay [10] it was 43.7 µM; in assay [3] it was 80.1 µM; in assay [5] it was more than 100 µM; in [6], more than 100 µM; in assay [7], more than 100 µM. Moreover, the TGI in assay [8] and in [9] was more than 100 µM throughout.
Consider `COc1ccccc1NC(=O)CC(=O)n1nc(C)c(N=Nc2ccccc2F)c1C`, for which the TGI was more than 100 µM in assay [1]; more than 100 µM in [10]; more than 100 µM in assay [3]; 28.3 µM in assay [5]; more than 31.6 µM in assay [6]; more than 100 µM in [7]. Also, the TGI in assay [8] and in [9] was more than 100 µM in each case.
Regarding `Cc1cc2c(C(C)C)c(O)c(O)c3coc(/c1=c1/c(C)cc4c(C(C)C)c(=O)c(=O)c5coc1c45)c32`, the TGI in assay [1] was found to be 16.2 µM; in assay [10] it was 17.8 µM; in [3] it was 22.8 µM; in assay [5], 23.1 µM; in assay [6], 10.8 µM; in assay [7], 15.6 µM. Further, the TGI worked out at 16.6 µM in assay [8] and 15.6 µM in assay [9].
Turning to `N#C/C(=C\c1cn(-c2ccccc2)c2ccccc12)C(=O)O`, the GI50 in assay [1] was 30 µM; in assay [2], 39.4 µM; in assay [3] it was 39.1 µM; in assay [4], 57.7 µM; in [5] it was 31.4 µM; in assay [6], 34.7 µM. Moreover, the GI50 in assay [7] was 30.7 µM; in assay [8], 18.8 µM; in assay [9], 42.9 µM. Further, the TGI in assay [1], in [2], in assay [3], in assay [4], in assay [5] and in [6] was more than 100 µM each time. The results for the TGI in assay [7], in assay [8] and in assay [9] were more than 100 µM, 43.9 µM and more than 100 µM, respectively.
With `C=CCOc1cc2c(cc1C(C)c1ccc(OC)cc1)OCO2` (configuration not stated), the TGI in assay [2] is 1.91 µM; in [10] it was 2.6 µM; in assay [3], more than 100 µM; in [5] it was 0.527 µM; in [6] it was more than 47.9 µM; in assay [7] it was more than 100 µM. In [9], the TGI is more than 100 µM.
Regarding `COc1cc2c(/C=C3/C(=O)Nc4ccccc43)c(Cl)n(Cc3ccccc3)c2cc1C`, the GI50 in assay [1] is more than 100 µM; in assay [2] it was 64.4 µM; in assay [10], 6.61 µM; in [4], more than 100 µM; in assay [6] it was more than 100 µM; in [7], more than 100 µM. The GI50 in [8] and in [9] was more than 100 µM throughout. The TGI in [1], in assay [2], in assay [10], in [4], in assay [6] and in [7] was more than 100 µM in each case. The TGI in assay [8] and in assay [9] was more than 100 µM each time.
In the case of `CC(C)=CC(=O)Cc1nc2ccccc2[nH]c1=O`, the TGI in assay [1], in assay [10], in assay [3], in assay [5], in [6] and in assay [7] was more than 100 µM throughout. Also, the TGI in [8] and in assay [9] was more than 100 µM throughout.
Consider `COc1n[n+]([O-])c(C)cc1[N+](=O)[O-]`, for which the GI50 is 3.05 µM in assay [1]; 16.2 µM in assay [2]; 16.1 µM in assay [3]; 19.1 µM in assay [4]; 10.2 µM in [6]; 2.74 µM in assay [7]. Also, the GI50 in assay [8] was 8.44 µM; in assay [9] it was 5.5 µM. In addition, the TGI in [1] amounted to 16.4 µM; in assay [2], 33.8 µM; in assay [3], 30.5 µM; in assay [4] it was 43.7 µM; in assay [6], 23.9 µM; in assay [7] it was 13.9 µM. Besides, the TGI in [8] stood at 28.4 µM; in [9], 24.6 µM.
For the molecule `Clc1ccc(C2=Nc3ccccc3SC(c3ccc(Cl)c(Cl)c3)C2)c(Cl)c1` (configuration not stated), the TGI came out at 34.4 µM in [1]; 24.8 µM in assay [10]; 36.6 µM in assay [3]; 34.6 µM in assay [5]; 23.4 µM in assay [6]; 27.3 µM in [7]. Further, the results for the TGI in assay [8] and in assay [9] were 26.1 µM and 43.6 µM, respectively.

The values are drawn from PubChem BioAssay (NCI).
